Results taken from EP1067939B1, “USE OF STEROIDAL ALKALOID DERIVATIVES AS INHIBITORS OF HEDGEHOG PROTEIN SIGNALING PATHWAYS” (The Johns Hopkins University, priority 1998, dated 1999).
Read-outs that look alike come from different tables or passages of the source.

Tests used:
His6Hh-C = biological target: T1, His6Hh-C (Drosophila melanogaster, UniProt Q02936); assay: In vitro Hh autoprocessing reaction with purified components; type: biochemical; conditions: for efficiency in driving the in vitro autoprocessing reaction: 12 µM sterol
T1 construct: made in house
T1 sequence (Q02936 252-471): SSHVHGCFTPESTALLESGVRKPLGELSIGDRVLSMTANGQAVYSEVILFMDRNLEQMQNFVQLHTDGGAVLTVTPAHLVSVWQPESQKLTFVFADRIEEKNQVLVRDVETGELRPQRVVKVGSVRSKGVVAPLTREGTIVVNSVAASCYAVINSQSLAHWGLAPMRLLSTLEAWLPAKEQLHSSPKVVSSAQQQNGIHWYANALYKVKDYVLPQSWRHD

BMP7 = assay: Neural plate explant response to BMP7 (migratory HNK-1 positive cells); type: cell-based, chick
Shh-N = assay: Intermediate neural plate explant response to exogenous Shh-N protein; type: cell-based, chick
[1] = at the concentrations that block the response to 25 nM Shh-N

SMILES: CC(C)=CCC[C@@H](C)[C@H]1CC[C@H]2[C@@H]3CC=C4C[C@@H](O)CC[C@]4(C)[C@H]3CC[C@]12C [desmosterol]
- efficiency in driving the in vitro autoprocessing reaction (His6Hh-C): efficiencies similar to that of cholesterol

SMILES: CC(=O)O[C@H]1CC[C@@]2(C)C(=CC[C@H]3[C@@H]4CC[C@H]([C@H](C)CCCC(C)C)[C@@]4(C)CC[C@@H]32)C1 [cholesterol acetate]
- participation of sterol in the autoprocessing reaction (His6Hh-C): unable to participatein the reaction

SMILES: CC(C)(O)CC[C@@H](O)[C@](C)(O)[C@H]1CC[C@@]2(O)C3=CC(=O)[C@@H]4C[C@@H](O)[C@@H](O)C[C@]4(C)[C@H]3CC[C@]12C [20-OH ecdysone]
- participation of sterol in the autoprocessing reaction (His6Hh-C): unable to participatein the reaction

SMILES: CC(C)CCC[C@@H](C)[C@H]1CC[C@H]2C3=CC[C@H]4C[C@@H](O)CC[C@]4(C)[C@H]3CC[C@]12C [lathosterol]
- efficiency in driving the in vitro autoprocessing reaction (His6Hh-C): efficiencies similar to that of cholesterol

SMILES: CC(=O)[C@H]1CC[C@H]2[C@@H]3CCC4=CC(=O)CC[C@]4(C)[C@H]3CC[C@]12C [progesterone]
- signaling by BMP7 (BMP7; [1]): without affecting signaling by BMP7
- concentration that blocks the response of intermediate neural plate explants to 25 nM Shh-N (Shh-N; 25 nM Shh-N): 20 µM

SMILES: CC(C)CCC[C@@H](C)[C@H]1CC[C@H]2C3=CC=C4C[C@@H](O)CC[C@]4(C)[C@H]3CC[C@]12C [7DHC, 7-dehydrocholestetol]
- efficiency in driving the in vitro autoprocessing reaction (His6Hh-C): efficiencies similar to that of cholesterol

SMILES: CC(C)CCC[C@@H](C)[C@H]1CC[C@H]2[C@@H]3CC=C4C[C@@H](S)CC[C@]4(C)[C@H]3CC[C@]12C [thiocholesterol]
- participation of sterol in the autoprocessing reaction (His6Hh-C): unable to participatein the reaction

SMILES: CC(C)CCC[C@@H](C)[C@H]1CC[C@H]2[C@@H]3CC=C4C[C@H](O)CC[C@]4(C)[C@H]3CC[C@]12C [Epicholesterol]
- participation of sterol in the autoprocessing reaction (His6Hh-C): unable to participatein the reaction

SMILES: CCN(CC)CCO[C@H]1CC[C@@]2(C)C(=CC[C@@H]3[C@@H]2CC[C@]2(C)C(=O)CC[C@@H]32)C1 [U 18666A]
- signaling by BMP7 (BMP7; [1]): without affecting signaling by BMP7
- concentration that blocks the response of intermediate neural plate explants to 25 nM Shh-N (Shh-N; 25 nM Shh-N): 0.25 µM

SMILES: CN(C)CCCN1c2ccccc2CCc2ccccc21 [imipramine]
- signaling by BMP7 (BMP7; [1]): without affecting signaling by BMP7
- concentration that blocks the response of intermediate neural plate explants to 25 nM Shh-N (Shh-N; 25 nM Shh-N): 75 µM

SMILES: C[C@H]([C@H](O)CCC(C)(C)O)[C@H]1CC[C@@]2(O)C3=CC(=O)[C@@H]4C[C@@H](O)[C@@H](O)C[C@]4(C)[C@H]3CC[C@]12C [α-ecdysone]
- participation of sterol in the autoprocessing reaction (His6Hh-C): unable to participatein the reaction

SMILES: CC(C)=CCC[C@@H](C)[C@H]1CC[C@@]2(C)C3=C(CC[C@]12C)[C@@]1(C)CC[C@H](O)C(C)(C)[C@@H]1CC3 [Lanosterol]
- stimulation of autoprocessing (His6Hh-C; 12 and 350 µM): do not stimulate autoprocessing above background

SMILES: CCN(CC)CCCC(C)Nc1ccnc2cc(Cl)ccc12 (centres unmarked) [chloroquine]
- signaling by BMP7 (BMP7): without affecting signaling by BMP7
- concentration that blocks the response of intermediate neural plate explants to 25 nM Shh-N (Shh-N): 50 µM

SMILES: C[C@H](CCCC(C)(C)O)[C@H]1CC[C@H]2[C@@H]3CC=C4C[C@@H](O)CC[C@]4(C)[C@H]3CC[C@]12C [25-hydroxycholesterol]
- reversal of the inhibitory effects of the teratogenic compounds (Shh-N; 25 µM added together with teratogenic compounds): did not reverse the inhibitory effects
- explant responses to Shh-N (Shh-N; 25 µM, 2nM or 25 nM Shh-N): None of the explant responses to treatment with 2nM or 25 nM Shh-N were affected

SMILES: CC(C)CC[C@@H](O)[C@](C)(O)[C@H]1CC[C@@]2(O)C3=CC(=O)[C@]4(O)C[C@@H](O)[C@@H](O)C[C@]4(C)[C@H]3[C@H](O)C[C@]12C [muristerone]
- stimulation of autoprocessing (His6Hh-C): do not stimulate autoprocessing above background
